Source: ChEMBL document CHEMBL5463725, “Data for DCP probe BAY-277” (2023)

Assays:
[1] = target: Estrogen receptor (Homo sapiens) (UniProt P03372); assay: Inhibition of Estrogen Eralpha at 10.0 µM in the Eurofins Panlabs Safety Screen; settings: Compound concentration 10.0 uM
Histamine H3 receptor [2] = target: T1, Histamine H3 receptor (Homo sapiens, UniProt Q9Y5N1); assay: Inhibition of Histamine H3 at 10.0 µM in the Eurofins Panlabs Safety Screen; settings: Compound concentration 10.0 uM
[3] = target: Mu-type opioid receptor (Homo sapiens) (UniProt P35372); assay: Inhibition of Opiate µ(OP3, MOP) at 10.0 µM in the Eurofins Panlabs Safety Screen; settings: Compound concentration 10.0 uM
[4] = target: 5-hydroxytryptamine receptor 1D (Homo sapiens) (UniProt P28221); settings: Compound concentration 10.0 uM
Sequence of 5-hydroxytryptamine receptor 1D (Homo sapiens) (P28221 whole entry): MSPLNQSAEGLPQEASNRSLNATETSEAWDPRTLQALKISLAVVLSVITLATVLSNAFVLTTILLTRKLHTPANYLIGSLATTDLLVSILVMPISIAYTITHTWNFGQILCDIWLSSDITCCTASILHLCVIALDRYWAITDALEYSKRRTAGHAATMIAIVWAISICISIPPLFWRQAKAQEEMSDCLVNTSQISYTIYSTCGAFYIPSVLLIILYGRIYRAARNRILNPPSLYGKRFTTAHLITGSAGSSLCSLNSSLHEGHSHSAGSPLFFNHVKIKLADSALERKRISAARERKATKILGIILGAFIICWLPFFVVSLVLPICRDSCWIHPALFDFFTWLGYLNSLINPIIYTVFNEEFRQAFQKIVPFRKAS

[5] = target: T2, Muscarinic acetylcholine receptor M4 (Homo sapiens) (UniProt P08173); assay: Inhibition of Muscarinic M4 at 10.0 µM in the Eurofins Panlabs Safety Screen; settings: Compound concentration 10.0 uM
T2 sequence (whole entry): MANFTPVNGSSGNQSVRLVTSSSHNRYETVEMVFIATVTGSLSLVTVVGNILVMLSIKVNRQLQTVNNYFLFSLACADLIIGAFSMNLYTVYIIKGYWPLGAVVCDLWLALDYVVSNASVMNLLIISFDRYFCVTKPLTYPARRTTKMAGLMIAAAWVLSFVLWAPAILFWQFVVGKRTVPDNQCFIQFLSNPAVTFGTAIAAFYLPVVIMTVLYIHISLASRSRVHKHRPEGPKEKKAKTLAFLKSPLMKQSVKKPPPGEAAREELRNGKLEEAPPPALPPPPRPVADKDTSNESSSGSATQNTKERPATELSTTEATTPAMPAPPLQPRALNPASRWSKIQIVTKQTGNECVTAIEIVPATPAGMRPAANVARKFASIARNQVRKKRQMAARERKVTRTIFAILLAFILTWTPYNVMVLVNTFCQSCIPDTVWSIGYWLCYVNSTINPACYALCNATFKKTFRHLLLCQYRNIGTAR

[6] = target: 5-hydroxytryptamine receptor 2A (Homo sapiens) (UniProt P28223); settings: Compound concentration 10.0 uM
Sequence of 5-hydroxytryptamine receptor 2A (Homo sapiens) (P28223 whole entry): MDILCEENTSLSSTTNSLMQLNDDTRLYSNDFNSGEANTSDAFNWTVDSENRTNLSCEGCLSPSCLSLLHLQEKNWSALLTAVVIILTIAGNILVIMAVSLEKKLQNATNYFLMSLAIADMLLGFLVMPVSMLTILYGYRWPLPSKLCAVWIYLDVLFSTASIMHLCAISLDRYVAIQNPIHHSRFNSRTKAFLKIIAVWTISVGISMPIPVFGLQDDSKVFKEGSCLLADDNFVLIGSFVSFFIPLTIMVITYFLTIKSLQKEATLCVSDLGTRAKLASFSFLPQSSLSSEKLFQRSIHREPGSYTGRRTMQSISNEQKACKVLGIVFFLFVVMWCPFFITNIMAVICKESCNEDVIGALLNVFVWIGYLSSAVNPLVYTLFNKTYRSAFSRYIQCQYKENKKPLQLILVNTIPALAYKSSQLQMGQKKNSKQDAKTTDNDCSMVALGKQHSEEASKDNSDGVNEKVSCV

[7] = target: Serine/threonine-protein kinase haspin (Homo sapiens) (UniProt Q8TF76); assay: Inhibition of Haspin(h) at 10.0 µM in the Eurofins Kinase panel; settings: Compound concentration 10.0 uM
[8] = target: D(4) dopamine receptor (Homo sapiens) (UniProt P21917); settings: Compound concentration 10.0 uM
Sequence of D(4) dopamine receptor (Homo sapiens) (P21917 whole entry): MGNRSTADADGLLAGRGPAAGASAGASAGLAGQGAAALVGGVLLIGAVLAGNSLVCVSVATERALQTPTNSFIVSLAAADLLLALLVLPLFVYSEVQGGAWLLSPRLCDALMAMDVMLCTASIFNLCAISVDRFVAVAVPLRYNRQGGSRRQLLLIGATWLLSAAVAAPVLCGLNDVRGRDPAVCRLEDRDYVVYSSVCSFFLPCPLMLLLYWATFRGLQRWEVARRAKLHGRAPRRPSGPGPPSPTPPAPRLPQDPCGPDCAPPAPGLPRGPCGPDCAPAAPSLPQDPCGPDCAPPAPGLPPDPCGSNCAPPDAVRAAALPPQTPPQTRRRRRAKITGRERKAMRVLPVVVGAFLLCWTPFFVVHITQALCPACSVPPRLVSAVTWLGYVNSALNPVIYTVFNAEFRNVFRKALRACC

[9] = target: 5-hydroxytryptamine receptor 2B (Homo sapiens) (UniProt P41595); assay: Inhibition of Serotonin (5-Hydroxytryptamine) 5-HT2B at 10.0 µM in the Eurofins Panlabs Safety Screen; settings: Compound concentration 10.0 uM
[10] = target: T3, Muscarinic acetylcholine receptor M3 (Homo sapiens, UniProt P20309); assay: Inhibition of Muscarinic M3 at 10.0 µM in the Eurofins Panlabs Safety Screen; settings: Compound concentration 10.0 uM
Target sequence in this assay (P20309 whole entry, looked up): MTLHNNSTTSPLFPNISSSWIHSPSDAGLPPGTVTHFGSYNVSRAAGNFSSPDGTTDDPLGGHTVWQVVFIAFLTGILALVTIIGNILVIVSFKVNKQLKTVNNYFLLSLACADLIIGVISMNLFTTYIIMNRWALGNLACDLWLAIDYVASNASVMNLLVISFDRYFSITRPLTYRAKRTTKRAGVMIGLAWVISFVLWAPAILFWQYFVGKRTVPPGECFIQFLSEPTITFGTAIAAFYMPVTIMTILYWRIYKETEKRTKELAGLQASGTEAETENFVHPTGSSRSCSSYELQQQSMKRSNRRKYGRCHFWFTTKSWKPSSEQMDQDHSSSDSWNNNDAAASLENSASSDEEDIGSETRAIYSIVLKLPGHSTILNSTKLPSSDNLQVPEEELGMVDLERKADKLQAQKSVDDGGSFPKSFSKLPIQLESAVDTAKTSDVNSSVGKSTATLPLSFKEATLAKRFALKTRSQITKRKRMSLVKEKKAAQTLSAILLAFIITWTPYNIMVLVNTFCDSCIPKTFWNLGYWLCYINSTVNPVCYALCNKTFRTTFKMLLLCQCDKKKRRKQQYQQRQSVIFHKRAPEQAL

Histamine H3 receptor [11] = target: T1, Histamine H3 receptor; assay: GPCRScan assay: inhibition of H3; design: radioligand conc. used [nm] 0.5 – 1.0, parental cells HEK Flp-In
[12] = target: Alpha-1D adrenergic receptor (Homo sapiens) (UniProt P25100); settings: Compound concentration 10.0 uM
Sequence of Alpha-1D adrenergic receptor (Homo sapiens) (P25100 whole entry): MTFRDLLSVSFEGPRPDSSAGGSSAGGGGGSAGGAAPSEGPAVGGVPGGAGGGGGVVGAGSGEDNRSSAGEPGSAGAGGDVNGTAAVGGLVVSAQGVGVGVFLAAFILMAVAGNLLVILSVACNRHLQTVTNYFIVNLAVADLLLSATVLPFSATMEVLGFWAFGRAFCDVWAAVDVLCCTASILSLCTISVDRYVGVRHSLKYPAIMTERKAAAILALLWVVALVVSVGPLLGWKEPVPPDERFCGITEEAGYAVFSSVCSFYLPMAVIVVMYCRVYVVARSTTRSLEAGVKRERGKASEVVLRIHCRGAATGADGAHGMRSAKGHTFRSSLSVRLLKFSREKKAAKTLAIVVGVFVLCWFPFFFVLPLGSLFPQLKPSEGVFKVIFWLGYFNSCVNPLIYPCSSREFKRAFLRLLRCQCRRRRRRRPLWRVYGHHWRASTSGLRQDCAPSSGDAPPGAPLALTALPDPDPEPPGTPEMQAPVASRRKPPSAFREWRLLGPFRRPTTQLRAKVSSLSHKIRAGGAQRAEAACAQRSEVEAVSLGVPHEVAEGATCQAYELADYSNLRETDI

[13] = target: T2, Muscarinic acetylcholine receptor M4 (Homo sapiens); settings: Compound concentration 10.0 uM
[14] = target: 5-hydroxytryptamine receptor 1B (Homo sapiens) (UniProt P28222); settings: Compound concentration 10.0 uM
Sequence of 5-hydroxytryptamine receptor 1B (Homo sapiens) (P28222 whole entry): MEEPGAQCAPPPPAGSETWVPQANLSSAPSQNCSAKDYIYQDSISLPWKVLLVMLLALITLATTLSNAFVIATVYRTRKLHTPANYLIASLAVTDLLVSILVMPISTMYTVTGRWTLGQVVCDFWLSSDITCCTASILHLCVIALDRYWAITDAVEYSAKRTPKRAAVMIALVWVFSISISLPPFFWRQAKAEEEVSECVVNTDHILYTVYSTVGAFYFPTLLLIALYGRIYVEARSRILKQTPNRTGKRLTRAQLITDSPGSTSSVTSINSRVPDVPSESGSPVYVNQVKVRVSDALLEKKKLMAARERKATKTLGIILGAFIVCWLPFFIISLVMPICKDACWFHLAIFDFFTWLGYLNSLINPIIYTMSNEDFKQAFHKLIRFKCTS

[15] = target: Beta-3 adrenergic receptor (Homo sapiens) (UniProt P13945); assay: Inhibition of Adrenergic beta3 at 10.0 µM in the Eurofins Panlabs Safety Screen; settings: Compound concentration 10.0 uM
[16] = target: GABA B receptor (Rattus norvegicus) (UniProt Q9Z0U4+O88871); assay: Inhibition of GABAB, Non-Selective at 10.0 µM in the Eurofins Panlabs Safety Screen; assay type: protein-complex assay; settings: Compound concentration 10.0 uM
[17] = target: Tyrosine-protein kinase HCK (Homo sapiens) (UniProt P08631); assay: Inhibition of Hck(h) at 10.0 µM in the Eurofins Kinase panel; settings: Compound concentration 10.0 uM
[18] = target: T3, Muscarinic acetylcholine receptor M3; assay: GPCRScan assay: inhibition of M3; design: radioligand conc. used [nm] 0.3 – 1.0, parental cells stable CHO
Target sequence in this assay (P20309 whole entry): as the sequence (P20309 whole entry, looked up) above

[19] = target: Sodium/potassium-transporting ATPase (Sus scrofa) (UniProt P05027+P05024+D2WKD8+D2WKD7+F1ST41); assay: Inhibition of ATPase, Na+/K+, Heart, Pig at 10.0 µM in the Eurofins Panlabs Safety Screen; assay type: protein-complex assay; settings: Compound concentration 10.0 uM
[20] = target: Delta-type opioid receptor (Homo sapiens) (UniProt P41143); assay: Inhibition of Opiate delta1 (OP1, DOP) at 10.0 µM in the Eurofins Panlabs Safety Screen; settings: Compound concentration 10.0 uM
[21] = target: Histamine H2 receptor (Homo sapiens) (UniProt P25021); settings: Compound concentration 10.0 uM
Sequence of Histamine H2 receptor (Homo sapiens) (P25021 whole entry): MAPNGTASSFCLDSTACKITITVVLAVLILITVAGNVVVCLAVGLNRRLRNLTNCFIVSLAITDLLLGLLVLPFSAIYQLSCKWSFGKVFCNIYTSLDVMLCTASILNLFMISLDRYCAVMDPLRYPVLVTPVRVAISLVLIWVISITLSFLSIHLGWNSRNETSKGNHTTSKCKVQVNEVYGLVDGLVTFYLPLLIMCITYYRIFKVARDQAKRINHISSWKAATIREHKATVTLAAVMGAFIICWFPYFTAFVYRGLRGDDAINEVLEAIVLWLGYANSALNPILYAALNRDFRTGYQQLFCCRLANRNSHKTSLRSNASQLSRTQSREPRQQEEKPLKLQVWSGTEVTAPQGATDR

[22] = target: Sodium-dependent noradrenaline transporter (Homo sapiens) (UniProt P23975); settings: Compound concentration 10.0 uM
Sequence of Sodium-dependent noradrenaline transporter (Homo sapiens) (P23975 whole entry): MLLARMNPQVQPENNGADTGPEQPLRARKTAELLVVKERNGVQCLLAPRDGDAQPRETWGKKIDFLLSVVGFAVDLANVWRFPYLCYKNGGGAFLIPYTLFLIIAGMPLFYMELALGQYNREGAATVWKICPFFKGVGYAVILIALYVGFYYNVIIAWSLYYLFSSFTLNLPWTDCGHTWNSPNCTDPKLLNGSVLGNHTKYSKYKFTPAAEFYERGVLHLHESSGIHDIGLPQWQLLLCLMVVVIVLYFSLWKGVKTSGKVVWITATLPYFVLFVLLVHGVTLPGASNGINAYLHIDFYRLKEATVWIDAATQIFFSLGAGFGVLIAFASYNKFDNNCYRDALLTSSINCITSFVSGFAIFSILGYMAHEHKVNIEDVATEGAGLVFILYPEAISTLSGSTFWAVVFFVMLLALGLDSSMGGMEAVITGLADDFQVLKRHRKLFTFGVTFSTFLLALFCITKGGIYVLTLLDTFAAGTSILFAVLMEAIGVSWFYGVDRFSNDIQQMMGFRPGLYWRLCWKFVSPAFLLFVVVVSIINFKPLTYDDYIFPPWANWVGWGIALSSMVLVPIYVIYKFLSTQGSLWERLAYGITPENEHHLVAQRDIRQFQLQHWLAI

[23] = target: Adenosine Transporter (Cavia porcellus) (UniProt H0V4R7+H0UUG1+H0V3Z5); assay: Inhibition of Transporter, Adenosine at 10.0 µM in the Eurofins Panlabs Safety Screen; assay type: protein assay; settings: Compound concentration 10.0 uM
[24] = target: Cannabinoid receptor 2 (Homo sapiens) (UniProt P34972); assay: Inhibition of Cannabinoid CB2 at 10.0 µM in the Eurofins Panlabs Safety Screen; settings: Compound concentration 10.0 uM
[25] = target: Nitric oxide synthase 1 (Homo sapiens) (UniProt P29475); assay: Inhibition of Nitric Oxide Synthase, Neuronal (nNOS) at 10.0 µM in the Eurofins Panlabs Safety Screen; settings: Rattus norvegicus; Compound concentration 10.0 uM
[26] = target: Leukotriene C4 synthase (Cavia porcellus) (UniProt A6XA80); assay: Inhibition of Leukotriene LTC4 Synthase at 10.0 µM in the Eurofins Panlabs Safety Screen; settings: Compound concentration 10.0 uM
Sequence of Leukotriene C4 synthase (Cavia porcellus) (A6XA80 whole entry): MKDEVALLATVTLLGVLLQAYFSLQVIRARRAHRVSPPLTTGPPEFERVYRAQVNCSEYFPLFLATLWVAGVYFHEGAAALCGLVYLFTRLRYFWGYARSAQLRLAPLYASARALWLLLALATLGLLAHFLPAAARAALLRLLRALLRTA

[27] = target: D(1A) dopamine receptor (Homo sapiens) (UniProt P21728); assay: Inhibition of Dopamine D1 at 10.0 µM in the Eurofins Panlabs Safety Screen; settings: Compound concentration 10.0 uM
[28] = target: D(2) dopamine receptor (Homo sapiens) (UniProt P14416); assay: Inhibition of Dopamine D2L at 10.0 µM in the Eurofins Panlabs Safety Screen; settings: Compound concentration 10.0 uM
Sequence of D(2) dopamine receptor (Homo sapiens) (P14416 whole entry): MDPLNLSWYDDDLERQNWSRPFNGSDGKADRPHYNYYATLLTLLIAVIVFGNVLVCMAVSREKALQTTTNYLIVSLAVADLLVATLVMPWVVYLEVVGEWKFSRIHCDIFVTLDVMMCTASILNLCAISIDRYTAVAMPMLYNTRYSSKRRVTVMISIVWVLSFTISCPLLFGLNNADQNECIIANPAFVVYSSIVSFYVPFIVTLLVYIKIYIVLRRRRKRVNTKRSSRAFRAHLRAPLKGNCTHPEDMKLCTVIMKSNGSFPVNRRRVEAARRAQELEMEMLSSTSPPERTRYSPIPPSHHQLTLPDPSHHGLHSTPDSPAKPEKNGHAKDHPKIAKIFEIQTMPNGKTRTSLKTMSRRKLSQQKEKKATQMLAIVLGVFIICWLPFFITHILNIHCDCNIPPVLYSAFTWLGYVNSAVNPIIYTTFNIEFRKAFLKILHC

[29] = target: T4, Alpha-2B adrenergic receptor (Homo sapiens) (UniProt P18089); assay: Inhibition of Adrenergic alpha2B at 10.0 µM in the Eurofins Panlabs Safety Screen; settings: Compound concentration 10.0 uM
T4 sequence (whole entry): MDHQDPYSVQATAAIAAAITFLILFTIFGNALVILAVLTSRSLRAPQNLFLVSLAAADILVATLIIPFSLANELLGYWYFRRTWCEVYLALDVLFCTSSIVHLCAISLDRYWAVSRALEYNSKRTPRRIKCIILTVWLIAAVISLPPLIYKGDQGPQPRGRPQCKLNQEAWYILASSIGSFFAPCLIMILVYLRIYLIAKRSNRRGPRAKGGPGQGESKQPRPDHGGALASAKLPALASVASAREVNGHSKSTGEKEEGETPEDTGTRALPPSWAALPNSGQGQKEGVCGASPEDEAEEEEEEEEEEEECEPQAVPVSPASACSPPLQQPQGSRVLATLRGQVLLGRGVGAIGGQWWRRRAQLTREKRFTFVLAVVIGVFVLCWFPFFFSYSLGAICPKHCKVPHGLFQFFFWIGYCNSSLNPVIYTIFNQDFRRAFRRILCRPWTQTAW

T1 sequence (Q9Y5N1 whole entry): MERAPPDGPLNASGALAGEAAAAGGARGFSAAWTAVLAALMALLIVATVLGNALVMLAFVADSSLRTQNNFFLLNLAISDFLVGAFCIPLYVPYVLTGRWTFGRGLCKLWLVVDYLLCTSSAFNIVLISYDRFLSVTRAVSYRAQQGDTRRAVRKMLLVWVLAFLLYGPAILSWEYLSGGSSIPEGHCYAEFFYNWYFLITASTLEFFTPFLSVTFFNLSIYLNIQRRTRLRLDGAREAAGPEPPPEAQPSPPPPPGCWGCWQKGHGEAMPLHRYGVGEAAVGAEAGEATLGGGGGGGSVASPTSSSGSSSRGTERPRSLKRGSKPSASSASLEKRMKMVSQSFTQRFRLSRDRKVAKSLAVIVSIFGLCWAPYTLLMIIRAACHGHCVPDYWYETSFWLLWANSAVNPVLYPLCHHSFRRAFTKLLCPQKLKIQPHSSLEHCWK

Row | SMILES | inhibition [1] | inhibition (Histamine H3 receptor [2]) | inhibition [3] | inhibition [4] | inhibition [5] | inhibition [6] | inhibition [7] | inhibition [8] | inhibition [9] | inhibition [10] | Ki (Histamine H3 receptor [11]; read-out: Ki) | Ki (Histamine H3 receptor [11]; read-out: pKi (converted)) | inhibition [12] | inhibition [13] | inhibition [14] | inhibition [15] | inhibition [16] | inhibition [17] | Ki ([18]; read-out: Ki) | Ki ([18]; read-out: pKi (converted)) | other results
1 | O=C1NCCCC1N1Cc2cc(C3CCN(C(=O)CCCCCN4CCC(c5ccc(Oc6nn7cnnc7c7c6CCCC7)cc5)CC4)CC3)ccc2C1=O (configuration not stated) | 22% | 85% | 16% | 37.4% | 57% | 21% | 26% | 19.1% | 10% | 29% | 73.2 nM | 72.4 nM | 8.76% | 76.1% | 14.2% | 13% | 22% | 17.9% | 1890 nM | 1860 nM | inhibition [19]: 1%; inhibition [20]: 7%; inhibition [21]: 42.1%; inhibition [22]: 4.02%; inhibition [23]: 44%; inhibition [24]: 12%; inhibition [25]: -4%; inhibition [26]: 15%; inhibition [27]: 20%; inhibition [28]: 22%; inhibition [29]: 8%
2 | O=C1CCC(N2Cc3cc(C4CCN(C(=O)CCCCCN5CCC(c6ccc(Oc7nn8cnnc8c8c7CCCC8)cc6)CC5)CC4)ccc3C2=O)C(=O)N1 (configuration not stated) | 17% | 81% | 19% | 48.5% | 70% | 18.6% | 28.6% | 14.3% | 41% | 26% | 72.8 nM | 70.8 nM | 19.8% | 83.5% | 21.9% | 16% | 15% | 12.8% | 2260 nM | 2090 nM | inhibition [19]: -7%; inhibition [20]: 0%; inhibition [21]: 42.2%; inhibition [22]: 11.7%; inhibition [23]: 40%; inhibition [24]: 14%; inhibition [25]: 9%; inhibition [26]: 2%; inhibition [27]: 16%; inhibition [28]: 22%; inhibition [29]: 19%
